Measurements as given in patent publication US10258614B2, “Compositions and methods for treating schizophrenia” (priority 2014, dated 2019).
Where “and” joins values, the source holds several entries; their conditions need not be identical. Identical values can stand only once. Counter-ions that a name gives are not always drawn. Like-named read-outs stand apart in the source and are kept apart here.

Tests used:
rats = test: Safety pharmacology studies (general activity and behavior, CNS, respiratory, gastrointestinal, water and electrolyte excretion); type: in vivo
Description: In a series of safety pharmacology studies, the effects of Compound (I) on general activity and behavior, the CNS, respiratory function, gastrointestinal system, and water and electrolyte excretion were examined in rats at an oral dose range of 1 to 30 mg/kg Compound (I) induced various changes in general activity and behavior. These clinical signs were observed between 0.25 to 4 hours post-dosing and disappeared by 6 hours post-dosing. Compound (I) inhibited CNS function and decreased thresholds for electroshock-induced convulsion.

DA receptors = test: In vitro receptor binding studies; conditions: read-out: IC50 (affinity for DA receptors)
in vivo [1] = test: in vivo; design: species or system monkeys; conditions: monkey
Description: (§1) Pharmacokinetic (PK) studies of Compound (I) have been performed particularly in rats and monkeys. Following a single oral administration, Compound (I) was rapidly absorbed. Plasma radioactivity peaked between 0.63 and 2.75 hours in male rats, and between 3 and 3.5 hours in male monkeys. […] The elimination half-lives of radioactivity from plasma were 45.13 to 51.52 hours in rats and 174.74 to 184.78 hours in monkeys. The elimination half-lives of unchanged Compound (I) were 1.68 to 2.06 hours in rats, and 1.68 to 2.57 hours in monkeys.
(§2) After single administration of BFB-520 in monkeys, exposure levels of BFB-520, Compound (I) and BFB-999 increased with a dose increment larger than the proportionate one. […] Finally, the brain transfer of Compound (I) was studied with male rats after oral administration (10 mg/kg). […] The Kp value (brain/plasma concentration ratio) was 1.38 mL/g.
(§3) The major route of elimination of radioactivity in rats and monkeys following a single oral or intravenous administration was via the feces. The excretion to bile was 44.2% within 48 hours after a single oral administration to bile duct cannulated rats. Urinary excretion rates of radioactivity were about 35% in rats and monkeys. […] The enterohepatic circulation rate was determined to be about 27% after intraduodenal administration of bile samples from ^14C-Compound (I)-treated rats.

QT/QTc interval = test: Analysis of relationship between QT/QTc and plasma concentrations; type: in vivo, human
Description: Increases in QTc interval were observed and seemed to be related to the exposure to Compound (I) and its metabolite BFB-520. […] A further analysis of the relationship between QT/QTc and Compound (I) and BFB-520 concentrations was performed.

al-adrenergic receptors = test: In vitro receptor binding studies
[2] = test system: phencyclidine-induced hyperlocomotion; test: Phencyclidine-induced hyperlocomotion; type: in vivo; conditions: male Wistar rats
Description: (§4) Compound (I) was tested in male Wistar rats in several behavioral paradigms designed to evaluate the potential for producing antipsychotic activity of drugs in humans. Compound (I) inhibited methamphetamine-, apomorphine-, and phencyclidine-induced hyperlocomotion in a similar manner to other antipsychotics.

[3] = test system: human P450 isoforms (CYP1A2, 2A6, 2B6, 2C8/9, 2C19, 2E1 and 3A4); test: Inhibition of human P450 isoforms; type: in vitro ADME
[4] = test system: dopamine turnover, DA metabolites DOPAC and HVA; test: Dopamine turnover and DA metabolite output after oral administration; type: in vivo
From the text: (§5) In in vivo functional tests, Compound (I) acted as an antagonist at sigma2 and 5-HT2A receptors.

IKr current = IKr current (Homo sapiens, UniProt Q12809); test: In vitro electrophysiology, cultured cells expressing cloned cardiac ion channels
IKr current, sequence (Q12809 whole entry): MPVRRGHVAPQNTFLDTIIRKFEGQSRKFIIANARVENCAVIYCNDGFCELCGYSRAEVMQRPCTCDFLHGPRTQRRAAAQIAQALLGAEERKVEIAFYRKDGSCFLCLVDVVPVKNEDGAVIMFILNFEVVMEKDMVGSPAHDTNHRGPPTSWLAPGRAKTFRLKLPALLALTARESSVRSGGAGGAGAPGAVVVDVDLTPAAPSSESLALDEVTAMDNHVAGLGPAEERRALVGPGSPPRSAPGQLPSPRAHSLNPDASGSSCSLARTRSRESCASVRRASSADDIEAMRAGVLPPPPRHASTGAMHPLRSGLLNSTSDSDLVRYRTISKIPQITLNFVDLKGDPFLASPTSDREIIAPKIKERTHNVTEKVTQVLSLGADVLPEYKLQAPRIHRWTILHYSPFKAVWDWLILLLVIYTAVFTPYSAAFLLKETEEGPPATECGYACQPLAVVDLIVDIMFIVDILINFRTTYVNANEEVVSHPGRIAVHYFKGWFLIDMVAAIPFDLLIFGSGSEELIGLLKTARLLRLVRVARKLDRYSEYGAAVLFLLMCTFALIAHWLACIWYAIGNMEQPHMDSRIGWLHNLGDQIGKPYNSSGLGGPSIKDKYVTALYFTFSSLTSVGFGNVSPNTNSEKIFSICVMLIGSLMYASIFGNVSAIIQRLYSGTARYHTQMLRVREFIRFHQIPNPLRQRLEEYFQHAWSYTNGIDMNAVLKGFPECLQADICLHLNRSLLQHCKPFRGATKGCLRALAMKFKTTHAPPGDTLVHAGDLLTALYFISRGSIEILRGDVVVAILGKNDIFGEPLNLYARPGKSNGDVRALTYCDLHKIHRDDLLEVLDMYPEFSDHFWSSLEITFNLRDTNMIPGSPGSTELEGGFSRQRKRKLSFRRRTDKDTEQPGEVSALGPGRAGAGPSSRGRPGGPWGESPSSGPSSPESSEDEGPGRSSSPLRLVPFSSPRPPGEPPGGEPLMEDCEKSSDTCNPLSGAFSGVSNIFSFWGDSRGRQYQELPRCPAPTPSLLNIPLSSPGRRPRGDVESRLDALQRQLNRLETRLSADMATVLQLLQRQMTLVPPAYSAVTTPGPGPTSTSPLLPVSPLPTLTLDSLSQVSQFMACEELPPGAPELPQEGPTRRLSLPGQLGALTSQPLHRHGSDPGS
From the text: (§6) The effects of Compound (I) on the cardiovascular system were examined in in vitro and in vivo studies.

CYP2D6 = CYP2D6 (Homo sapiens, UniProt P10635); test: Inhibition of human P450 isoforms; type: in vitro ADME
CYP2D6, sequence (P10635 whole entry, canonical isoform): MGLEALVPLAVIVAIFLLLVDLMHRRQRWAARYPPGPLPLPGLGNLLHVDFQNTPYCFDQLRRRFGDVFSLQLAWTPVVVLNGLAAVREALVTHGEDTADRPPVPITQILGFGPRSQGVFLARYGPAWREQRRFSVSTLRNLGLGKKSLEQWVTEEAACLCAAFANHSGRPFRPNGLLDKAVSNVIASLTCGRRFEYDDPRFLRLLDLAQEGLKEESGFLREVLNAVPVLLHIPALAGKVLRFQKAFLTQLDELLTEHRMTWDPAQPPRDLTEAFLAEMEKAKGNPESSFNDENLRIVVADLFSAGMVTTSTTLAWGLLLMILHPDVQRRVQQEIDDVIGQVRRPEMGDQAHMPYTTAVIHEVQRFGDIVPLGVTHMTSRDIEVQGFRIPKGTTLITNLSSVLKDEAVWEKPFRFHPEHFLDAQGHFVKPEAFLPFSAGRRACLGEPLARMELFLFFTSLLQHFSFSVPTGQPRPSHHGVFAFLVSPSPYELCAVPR

5-HT2A receptors [5] = molecular target: 5-HT2A receptors (Homo sapiens, UniProt P28223); test: In vitro receptor binding studies
5-HT2A receptors (Homo sapiens, UniProt P28223), sequence (P28223 whole entry): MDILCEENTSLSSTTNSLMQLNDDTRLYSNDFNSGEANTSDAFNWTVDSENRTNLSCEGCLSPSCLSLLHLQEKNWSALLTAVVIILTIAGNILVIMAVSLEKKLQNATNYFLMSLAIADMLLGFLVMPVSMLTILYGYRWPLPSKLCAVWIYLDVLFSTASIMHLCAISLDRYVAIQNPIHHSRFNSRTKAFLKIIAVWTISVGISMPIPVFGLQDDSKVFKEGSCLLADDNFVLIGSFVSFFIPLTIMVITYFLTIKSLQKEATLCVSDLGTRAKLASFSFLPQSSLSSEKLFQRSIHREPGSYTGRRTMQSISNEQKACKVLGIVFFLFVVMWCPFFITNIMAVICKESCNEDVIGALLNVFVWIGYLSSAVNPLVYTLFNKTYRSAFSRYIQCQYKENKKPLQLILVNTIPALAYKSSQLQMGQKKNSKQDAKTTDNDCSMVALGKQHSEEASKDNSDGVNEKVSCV

[6] = test system: PCP-induced social interaction impairment; test: PCP-induced social interaction impairment; type: in vivo, male Wistar rats; conditions: after repeated administration
[7] = Part 1 single dose MR formulation pharmacokinetic study in healthy CYP2D6 EM male subjects; type: in vivo, human; design: Cmax increase, food effect: unit not given beside the values; conditions: for AUC(0-t) / Cmax / half-life: plasma
From the text: Part 1 of this study was designed to characterize and compare the pharmacokinetic (PK) profile of Compound (I) when administered as MR formulations, and food effects, following a single dose administration in a 6-way, within subject, crossover design.
Part 1 of the study is an open-label, non-randomized, single dose, 6-period crossover design in 12 healthy CYP 2D6 EM male subjects. For Part 1, subjects will receive the following regimens in a non-randomised manner:
Regimen A: MR Formulation prototype 1: 32 mg Compound (I) slow release administered in the fasted state
A Two-Part Study Designed to Evaluate the Pharmacokinetic Profile of Compound (I) and its Main Metabolites Following Single and Multiple Dose Modified Release Prototype Formulation Administration in Healthy CYP2D6 Extensive Metabolizer Male and Female Subjects, and to Evaluate the Relationship Between the Pharmacokinetic Profile of Compound (I) and its Main Metabolites and Cardiovascular Parameters.

sigma2 receptors [8] = molecular target: sigma2 receptors (Homo sapiens, UniProt Q5BJF2); test: In vitro receptor binding studies
sigma2 receptors (Homo sapiens, UniProt Q5BJF2), sequence (Q5BJF2 whole entry): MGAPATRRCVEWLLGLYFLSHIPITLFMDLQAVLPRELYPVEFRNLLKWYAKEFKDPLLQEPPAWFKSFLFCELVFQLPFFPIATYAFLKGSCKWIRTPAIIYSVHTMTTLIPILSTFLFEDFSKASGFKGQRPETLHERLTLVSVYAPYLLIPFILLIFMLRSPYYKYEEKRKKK

in vivo [9] = test: in vivo; design: species or system male rats; conditions: rat, po, 10 mg/kg
Description: as §2

in vivo [10] = test: in vivo; design: species or system rats; conditions: rat
Description: as §1
Food and gender effects were also assessed in rats.
as §3

[11] = test system: methamphetamine-induced hyperlocomotion; test: Methamphetamine-induced hyperlocomotion; type: in vivo, male Wistar rats; conditions: for methamphetamine-induced hyperlocomotion: male Wistar rats
Description: as §4

[12] = test system: spontaneous alternation behavior impairment induced by MK-801; test: Impairment of spontaneous alternation behavior induced by MK-801; design: species or system male Wistar rats; conditions: rat, in vivo
sigma2 receptors [13] = test: In vivo functional tests
From the text: as §5

5-HT2A receptors [14] = test: In vivo functional tests
From the text: as §5

[15] = test system: apomorphine-induced hyperlocomotion; test: Apomorphine-induced hyperlocomotion; type: in vivo; conditions: male Wistar rats
Description: as §4

[16] = test system: human liver microsomes, cytochromes P450
sleep architecture = test: CYR-101C01 Phase 2a study, sleep recordings (PSG) and PSQI; type: in vivo, human
[17] = test system: guinea pig papillary muscle
From the text: as §6

O=C(CN1CCC(CN2Cc3ccccc3C2=O)CC1)c1ccc(F)cc1 [Compound (I), 2-((1-(2-(4-Fluorophenyl)-2-oxoethyl)piperidin-4-yl)methyl)isoindolin-1-one monohydrochloride dihydrate]
CNS function (rats; oral 1 to 30 mg/kg): inhibited | thresholds for electroshock-induced convulsion (rats; oral 1 to 30 mg/kg): decreased | time by which clinical signs disappeared post-dosing (rats; oral 1 to 30 mg/kg): ≤ 6 h | effects at high doses (rats; oral, high doses (>10 mg/kg)): affected respiratory function, inhibited gastric emptying, damaged the gastrointestinal membrane, decreased urine volume, and increased urine potassium excretion | IC50 (DA receptors): > 1000 nM | time of peak plasma radioactivity (in vivo [1]; male, po): 3 to 3.5 h | urinary excretion rate of radioactivity (in vivo [1]): about 35% | bioavailability (in vivo [1]; po): ≥ 90% | half-life (in vivo [1]; po): 1.68 to 2.57 h | oral absorption rate (in vivo [1]; po): 70.0-99.9% | Cmax (QT/QTc interval; human plasma, read-out: Cmax that should not be exceeded to avoid QT prolongation): ≤ 80 ng/mL | Ki (al-adrenergic receptors): 14.4 nM | phencyclidine-induced hyperlocomotion [2]: inhibited | inhibitory effects on human P450 isoforms (CYP1A2, 2A6, 2B6, 2C8/9, 2C19, 2E1 and 3A4) [3]: No remarkable inhibitory effects | monoamine levels ([4]; effective dose levels in animal models of antipsychotic activity): did not affect | dopamine turnover in the accumbens and striatum ([4]; oral administration): slightly increased | output of DA metabolites such as DOPAC and HVA in prefrontal cortex ([4]; oral, high dose levels): increased the output | IC50 (IKr current): 325 nM | inhibitory effect on CYP2D6 (CYP2D6): weak inhibitory effect | Ki (5-HT2A receptors [5]; 5-HT2A receptor): 7.53 nM | PCP-induced social interaction impairment [6]: significantly ameliorated | dose proportionality of PK ([7]; MR formulation under fasted conditions): generally dose proportional | Cmax increase, food effect ([7]; MR formulation, fed vs fasted): ~2 × | Half-life Fed to Fasted ratio ([7]; MR formulation, fed vs fasted): 0.5 | Tiag, Median ([7]; Period 1, 32 mg Slow Release, Fasted, plasma analyte): 0 h | Tmax ([7]; male, human, oral, Period 1, 32 mg Slow Release, Fasted, plasma analyte, read-out: Tmax, Median): 2.25 h | AUC(0-t) ([7]; male, human, oral, 32 mg, Period 1, 32 mg Slow Release, Fasted, plasma analyte, read-out: AUClast, Mean): 212 ng·h/mL | AUC(0-t) ([7]; male, human, oral, 32 mg, Period 1, 32 mg Slow Release, Fasted, plasma analyte, read-out: AUClast, Median): 220 ng·h/mL | Cmax ([7]; male, human, oral, 32 mg, Period 1, 32 mg Slow Release, Fasted, plasma analyte, read-out: Cmax, Mean): 22.5 ng/mL | Cmax ([7]; male, human, oral, 32 mg, Period 1, 32 mg Slow Release, Fasted, plasma analyte, read-out: Cmax, Median): 23.7 ng/mL | half-life ([7]; male, human, oral, 32 mg, Period 1, 32 mg Slow Release, Fasted, plasma analyte, read-out: t½, Mean (converted)): 6.26 h | half-life ([7]; male, human, oral, 32 mg, Period 1, 32 mg Slow Release, Fasted, plasma analyte, read-out: t½, Median (converted)): 5.35 h | half-life ([7]; male, human, oral, MR formulation under fasted conditions, read-out: Half-life): 3 to 8 h | Ki (sigma2 receptors [8]; sigma2 receptor): 8.19 nM | Cmax (in vivo [9]; male): 3160 ng/mL and 4950 ng/g | Kp value (brain/plasma concentration ratio) (in vivo [9]): 1.38 mL/g | recovery of given radioactivity in carcass (in vivo [10]; male, 168 h): 0.7% | time of peak plasma radioactivity (in vivo [10]; male, po): 0.63 to 2.75 h | enterohepatic circulation rate (in vivo [10]): about 27% | pharmacokinetic parameters for total radioactivity, female vs male rats (in vivo [10]): comparable | urinary excretion rate of radioactivity (in vivo [10]): about 35% | bioavailability (in vivo [10]; po): 52.4 to 64.5% | half-life (in vivo [10]; po): 1.68 to 2.06 h | oral absorption rate (in vivo [10]; po): 90.3-94.7% | transfer into milk (in vivo [10]; po): rapidly transferred into milk and were slowly eliminated | methamphetamine-induced hyperlocomotion [11]: inhibited | impairment of spontaneous alternation behavior induced by MK-801 [12]: improved | functional activity at sigma2 receptors (sigma2 receptors [13]): antagonist | functional activity at 5-HT2A receptors (5-HT2A receptors [14]): antagonist | apomorphine-induced hyperlocomotion [15]: inhibited | metabolizing enzymes [16]: mainly metabolized by enzymatic reaction other than CYP isoforms | sleep initiation parameters (sleep onset latency, latency to persistent sleep) (sleep architecture; patients): improved | slow wave sleep (SWS) in the first third of the night (sleep architecture; patients, PSG): significantly increased | slow wave sleep (SWS) in the last third of the night (sleep architecture; patients, PSG): decreased | subjective sleep quality as measured by PSQI (sleep architecture; vs placebo): improvement was greater with Compound (I) than with placebo although not statistically significant

O=C1c2ccccc2CN1CC1CCN(CC(O)c2ccc(F)cc2)CC1 (stereo not drawn) [BFB-520]
time to maximum concentration post-dosing (in vivo [1]): ≤ 4 h | Cmax that should not be exceeded to avoid QT prolongation (QT/QTc interval; human, in vivo): ≤ 12 ng/mL | IC50 (IKr current): 181 nM | affinity for 5-HT2A receptors compared with Compound (I) (5-HT2A receptors [5]): lower | Half-life Fed to Fasted ratio ([7]; human, in vivo): 0.8 | dose proportionality of PK ([7]; human, in vivo): less so | affinity for σ2 receptors compared with Compound (I) (sigma2 receptors [8]): lower affinity | concentration that prolonged the action potential duration (APD) [17]: ≥ 100 nM | methamphetamine-induced hyperlocomotion [11]: inhibited | ED50 compared with Compound (I) ([11]; methamphetamine-induced hyperlocomotion): higher than that of Compound (I) | metabolizing enzymes [16]: metabolized by CYP2D6 and CYP3A4
